Measured values from patent publication US20240156790A1, “COMPOUNDS, COMPOSITIONS, AND METHODS FOR MODULATING FERROPTOSIS AND TREATING EXCITOTOXIC DISORDERS” (THE TRUSTEES OF COLUMBIA UNIVERSITY IN THE CITY OF NEW YORK, priority 2018, published 2024).
Entries after “also recorded” stand apart in the source; their conditions may differ.

Columns and labels:
[1] = Microsomal Stability Assay (Examples 6 and 8); type: in vitro ADME, mouse; conditions: for half-life at 20 µM: CD-1, mouse, liver microsomes, pH 7.4, text, read-out: half-life in mouse liver microsomes; for microsomal stability / half-life, in words: assessed over two hours
Experimental: (§1) To a 96-well polypropylene plate was added phosphate buffer (182.2 μL, pH 7.4, 100 mM) followed by addition of NADPH-regenerating system solution A (10 μL), and NADPH regenerating system solution B (2 μL) (Corning Gentest 3P NADPH regenerating system solution A (#451220) and B (#451200)). A stock solution of analog (0.8 μL. 5 mM) or fer-1 (positive control) was added and the mixture was warmed to 37° C. for 5 min. Mouse microsomes (CD-1, 20 mg/mL, Life Technologies) (5 μL, thawed in 37° C. water bath before use) were added. The resulting reaction mixture was kept at 37° C. with gentle agitation for the duration of the experiment. At selected time points (0, 1, 5, 10, 20, 30, 60 and 120 min) aliquots (15 μL) were withdrawn from the plate and quenched upon addition to cold methanol (60 μL), containing an internal standard (5 μM) in a separate 96-well polypropylene plate. At the completion of the final time-point, the samples were centrifuged at 4,000 rpm for 5 min at 4° C. The supernatant (40 μL) was withdrawn and transferred to a sample vial with insert. The samples were analyzed by LC-MS. LC-MS analysis was performed on a platform comprising a Thermo Scientific Dionex Ultimate 3000 and a Bruker amaZon SL equipped with an electrospray ionization source controlled by Bruker Hystar 3.2. Chromatographic separation was performed by injecting 5 μL of the sample onto an Agilent Eclipse Plus C18 column (2.1×50 mm, 3.5 μm) maintained at 20° C. The flow rate was maintained at 400 μL/min. The initial flow conditions were 80% solvent A (water containing 0.1% acetic acid) and 20% solvent B (methanol containing 0.1% acetic acid). Solvent B was raised to 80% over 0.50 min by 1.50 min. Solvent B was raised to 100% by 5.00 min and held there for 3.25 min. […] All analogs were detected in positive mode as [M+H]*. The percent of compound remaining at each time-point was calculated as the ratio of the integrated compound peak over the internal standard peak and standardized to the t=0 time-point. Values were plotted in GraphPad Prism 9 and fit with a one phase decay.
as §1, with “and NADPH-regenerating” for “and NADPH regenerating”, “rpm (1872 g)” for “rpm”, “[M+H]*. […]” for “[M+H]*. The percent of compound remaining at each time-point was calculated as the ratio of the integrated compound peak over the internal standard peak and standardized to the t=0 time-point. Values were plotted in GraphPad Prism 9 and fit with a one phase decay.”

HT-1080 cells = experiment: Cell viability assays in HT-1080 cells, ferroptosis induced by IKE or RSL3 (Example 8); type: cell-based; conditions: for IC50: Homo sapiens, HT-1080, 48 h
Experimental: Cell culture assays were incubated at 37° C. with 5% CO2. HT-1080 cells were grown in DMEM (Corning) supplemented with 10% FBS (Life Technologies), 1% Penicillin-Streptomycin 10,000 U/mL (Gibco), and 1% MEM Non-Essential Amino Acids Solution 100× (Gibco). For cell viability assays, cells were trypsinized, counted, and seeded into 384-well white polypropylene plates at 1,000 cells/well, unless otherwise specified. After allowing cells to adhere overnight, compounds in DMSO stocks were arrayed in a 16-point dilution series prepared in a mother plate, and treated from a daughter plate, [DMSO]=0.28%. After 24 or 48 h, 50% CellTiter-Glo (Promega) 50% cell culture medium was added to each well and incubated at room temperature with shaking for 15 min. Luminescence was measured using a Victor X5 plate reader (PerkinElmer). All cell viability data were normalized to the DMSO vehicle condition. […] All 384w measurements were performed in triplicate
We first evaluated the efficacy of four pyridine analogs, TH-2-9-1, TH-2-31, TH-2-37-1, and TH-2-37-2, in suppressing ferroptosis induced by IKE and RSL3 in HT-1080 cells. […] We sought to determine whether incorporation of pyridine changed stability in mouse liver microsomes.

[2] = system: N27 rat dopaminergic cells; experiment: Suppression of ferroptosis induced by RSL3 in N27 cells (CellTiter-Glo viability); type: cell-based; conditions: Rattus norvegicus, N27, 24 h, Table 3; ^d 24 hr treatment, 1,000 cells/well seeded; read-out: IC50
[3] = TH-2-31, TH-4-55-2, TH-4-67 PK Study (IP, IV, PO; plasma and brain); type: in vivo, C57BL/6 mice; conditions: mouse, in vivo
Experimental: C57BL/6 mice (8-weeks of age and ˜25 g weight) were weighed before injection and divided into groups of two male and female mice per cage. Compound was dissolved in 5% DMSO/95% of 1:1 [(65% v/v of 25% w/v 2-hydroxypropyl-3-cyclodextrin (Cayman Chemical) dissolved in 20% EtOH, 30% v/v Poly(ethylene glycol)-400 (Sigma Aldrich 202398), 5% v/v Tween 80 (Fluka 59924)):MilliQ water] to create a 2 mg/mL solution. The same formulation without compound was used as a vehicle control. The solution was sterilized using a […] Steriflip filter unit (Thomas Scientific 1189Q46). Mice were dosed IP, IV, and PO routes of administration and euthanized by CO2 asphyxiation for 3 min at 0, 1, 2, 4, 8, and 24 h after administration. To ensure that the vehicle was well-tolerated 4 mice were treated with vehicle and euthanized 4 h after administration. ˜0.5 mL of blood was collected via cardiac puncture and immediately put in K3 EDTA microtubes ([…] 41.1504.105) and kept on ice. Organs were harvested, placed in Eppendorf tubes, and frozen on dry ice. Blood samples were centrifuged for 10 min at 2,100×g at 4° C., then plasma was transferred to a clean tube and frozen on dry ice. Organ samples were weighed and placed in hard tissue homogenizing tubes (Omni International 19-628) and a volume of DEPC-treated nuclease-free water (IBI Scientific IB42200) was added to make a 500 mg/mL solution and homogenized using the Omni Bead Ruptor 4 at speed 5 for 30 seconds. Compound was extracted from plasma or organ homogenate by adding 900 μL acetonitrile to 100 μL plasma or organ homogenate. Samples were mixed by vortexing and allowed to extract overnight at 4° C. prior to mixing for at least 5 min by rotating at room temperature, vortexing, and sonicating for at least 30 second prior to centrifugation for 10 min at 4,000×g and 4° C. The supernatant was then transferred to a glass vial and analyzed by UPLC-MS described below. The concentration of each analog was determined against a standard curve with a nonlinear fit and the data plot in GraphPad Prism 9 and fit with a one phase decay.
Samples from animal studies were analyzed via UPLC-MS using a Waters Xevo G2-Xs QTof Mass spectrometer equipped with an Acquity UPLC. Chromatographic separation was carried out at 50° C. on a Acquity UPLC BEH C18 column (1.7 μm, 2.1 mm×50 mm, pore size 130 Å) over a 4.5 min gradient elution. The flowrate was held constant at 0.8 mL/min. Mobile phase A consisted of water and mobile phase B consisted of ACN both containing 0.1% formic acid. After injection, the gradient was held at 50% A for 0.25 min. For the next minute, the gradient was ramped in a linear fashion to 100% B and held at this composition for 0.5 min. The eluent composition returned to the initial condition in 0.01 min and the column was re-equilibrated for 2.74 min before the next injection. Injection volumes were 0.5 μL (TH-2-31 40 mg/kg) and 1 μL for all other conditions. The Xevo G2-Xs was operated in positive electrospray ionization (ESI) mode. A capillary voltage and sampling cone voltage of 0.5 kV and 30 V were used. The source and desolvation temperatures were kept at 120° C. and […], respectively. Nitrogen was used as the desolvation gas with a flowrate of 750 L/hr. The protonated molecular ion of leucine encephalin ([M+H]^+, m/z 556.2771 was used as a lock mass for mass accuracy and reproducibility. Leucine enkephalin was introduced to the lock mass at a concentration of 2 ng/mL (50% ACN containing 0.1% formic acid), and a flow rate of […]. To avoid signal saturation, the signal transmission was attenuated to <10%, based off the signal intensity of the highest standard concentration for the duration of the run. The data was collected over the mass range m/z 50 to 1200 Da with an acquisition time of 0.1 seconds per scan. The retention time for each analog is detailed below. […]

[4] = ^b 2 μM IKE, 48 hours, 1,000 cells/well
[5] = ^c 0.2 μM RSL3, 48 hours, 1,000 cells/well

| Compound | half-life at 20 µM [1] | potency relative to fer-1 at suppressing ferroptosis, in words (HT-1080 cells) | also measured |
| --- | --- | --- | --- |
| Cc1noc(-c2ccc(NC34CC5CC(CC(C5)C3)C4)c(N)c2)n1 [PHB4066, N1-((3s,5s,7s)-adamantan-1-yl)-4-(3-methyl-1,2,4-oxadiazol-5-yl)benzene-1,2-diamine] | < 1 h |  |  |
| Cc1cc(NC23CC4CC(CC(C4)C2)C3)c(N)cc1C(=O)OC(C)(C)C [AZIII4, tert-butyl 4-(((3s,5s,7s)-adamantan-1-yl)amino)-5-amino-2-methylbenzoate] | < 1 h |  |  |
| Cc1noc(-c2cc(NC3CCCCC3)cnc2NC2CCCCC2)n1 [TH-2-37-1, N^2,N^5-dicyclohexyl-3-(3-methyl-1,2,4-oxadiazol-5-yl)pyridine-2,5-diamine] |  | potencies greater than fer-1 | IC50 (HT-1080 cells; [4]): 7.5 nM; IC50 (HT-1080 cells; [5]): 4.3 nM |
| CC(C)(C)OC(=O)c1ccc(NC23CC4CC(CC(C4)C2)C3)c(NC2CCCCC2)c1 [DL032, tert-butyl 4-(((3s,5s,7s)-adamantan-1-yl)amino)-3-(cyclohexylamino)benzoate] |  | more potent than fer-1 | microsomal stability / half-life, in words [1]: half-lives greater than two hours |
| Cc1cc(NC23CC4CC(CC(C4)C2)C3)c(NC2CCCCC2)cc1C(=O)OC(C)(C)C [AZIII9, tert-butyl 4-(((3s,5s,7s)-adamantan-1-yl)amino)-5-(cyclohexylamino)-2-methylbenzoate] |  | less potent than fer-1 | microsomal stability / half-life, in words [1]: half-lives greater than two hours; also recorded: the most stable compound tested |
| CC(C)(C)OC(=O)c1cc(N)c(NC23CC4CC(CC(C4)C2)C3)cc1F [AZII78, tert-butyl 4-(((3s,5s,7s)-adamantan-1-yl)amino)-5-amino-2-fluorobenzoate] | < 1 h |  |  |
| CC(C)(C)OC(=O)c1ccc(NC2CCCCC2)c(Nc2ccccc2)c1 [PHB4081, tert-butyl 4-(cyclohexylamino)-3-(phenylamino)benzoate] | < 1 h |  |  |
| CC(C)(C)OC(=O)c1cc(NC2CCCCC2)c(NC23CC4CC(CC(C4)C2)C3)cc1F [AZIII8, tert-butyl 4-(((3s,5s,7s)-adamantan-1-yl)amino)-5-(cyclohexylamino)-2-fluorobenzoate] |  | more potent than fer-1 | microsomal stability / half-life, in words [1]: half-lives greater than two hours |
| Cc1noc(-c2cc(NC(C)C)cnc2NC2CCCCC2)n1 [TH-2-37-2, N^2-cyclohexyl-N^5-isopropyl-3-(3-methyl-1,2,4-oxadiazol-5-yl)pyridine-2,5-diamine] |  | potencies greater than fer-1 | IC50 (HT-1080 cells; [4]): 5.4 nM; IC50 (HT-1080 cells; [5]): 3.8 nM |
| Cc1noc(-c2cnc(NC34CC5CC(CC(C5)C3)C4)c(NC3CCCCC3)c2)n1 [TH-4-100-2, N^2-((3s,5s,7s)-adamantan-1-yl)-N^3-cyclohexyl-5-(3-methyl-1,2,4-oxadiazol-5-yl) pyridine-2,3-diamine] |  |  | IC50 [2]: 18.9 nM; tolerability / adverse observations after dosing [3]: less impaired immediately following injection and recovered more quickly; also recorded: less impaired immediately following injection and recovered quicker |
| Cc1noc(-c2ccc(NC3CCCCC3)c(N)c2)n1 [PHB4078, N1-cyclohexyl-4-(3-methyl-1,2,4-oxadiazol-5-yl)benzene-1,2-diamine] | < 1 h |  |  |
